# What was measured:
# [1] = test system: Pdx1/Ipf1; test: Relative real time RT-PCR in islets of KKAy mice (Example 3): Pdx1/Ipf1; assay type: in vivo; conditions: 9 weeks
# Description: (§1) Islets were isolated by the collagenase digestion technique. In brief, the animals were anesthetized with pentobarbital (50 mg/kg intraperitoneally) and midline laparotomy was performed. The pancreas was retrogradely filled with 3 mL ice-cold Hanks balanced salt solution (([HBSS] Sigma Chemical, St Louis, Mo.) supplemented with 0.3 mg/ml collagenase Boehringer Mannheim GmbH, Germany). The pancreas was subsequently removed and incubated for 19 minutes at 37° C. After rinsing in HBSS, the islets were handpicked under a stereomicroscope and immediately transferred to a tubes containing 1 ml Trizol (Gibco/Invitrogene, Calsbad, Calif., USA). The islets isolated from the NMRI mice were incubated overnight at 37° C. and 95% normal atmosphere/5% CO2 in 10 ml RPMI 1640 containing 11.1 mmol/L glucose supplemented with penicillin G and 100 μg/mL streptomycin (all Gibco/Invitrogene, Calsbad, Calif., USA).
# (§2) For each group, islets from 3-4 mice (180-200 islets) were pooled in 1 ml Trizol reagent (Gibco/lnvitrogene, Calsbad, Calif., USA) before RNA purification. Total RNA was extracted according to the manufactures' instructions. RNA was quantified by measuring absorbance at 260 and 280 nm. The quality of the RNA was checked by the Agilent 2100 bioanalyzer (Agilent, Santa Clara, USA). […]
# [2] = test system: Beta2/neuroD; test: Relative real time RT-PCR in islets of KKAy mice (Example 3): Beta2/neuroD; assay type: in vivo; conditions: 9 weeks, normalized to 18S rRNA
# Description: as §1, §2
# [3] = test system: GLUT2; test: Affymetrix gene chip analysis of KKAy islets: GLUT2; assay type: in vivo, mice; conditions: ISV vs. KKAy control islets, 9 weeks
# Description: (§3) cRNA preparation and in vitro transcription: In total 6 Affymetrix arrays MOE430 2.0 probe array cartridge were used i.e. for analysis of 3 replicas for the KKAy control group and the ISV group, respectively. Each of the 6 samples consisted of pooled RNA from 3-4 KKAy mice. Preparation of target for hybridization was prepared from 340 ng of total RNA using MessageAmp™ II aRNA Amplification Kits (Ambion), according to the manufacturers instructions. Arrays were hybridised and scanned as described elsewhere (Kruhoffer et al., 2005).
# [4] = test system: Beta2/neuroD; test: Affymetrix gene chip analysis of KKAy islets: Beta2/neuroD; assay type: in vivo, mice; conditions: ISV vs. KKAy control islets, 9 weeks
# Description: as §3
# [5] = test system: Pax6; test: Affymetrix gene chip analysis of KKAy islets: Pax6; assay type: in vivo, mice; conditions: ISV vs. KKAy control islets, 9 weeks
# Description: as §3
# [6] = test system: Nkx2-2; test: Affymetrix gene chip analysis of KKAy islets: Nkx2-2; assay type: in vivo, mice; conditions: ISV vs. KKAy control islets, 9 weeks
# Description: as §3
# [7] = test system: isolated NMRI mice islets; test: Glucose stimulated insulin secretion (GSIS) from isolated NMRI mice islets; assay type: cell-based
# Description: For in vitro studies with steviol and ISV, we included adult female NMRI mice (Taconic, Ry Denmark), all weighing 22-25 g. We used 12 hours light/dark cycle. The Danish Council for Animal experiments has approved the study.
# as §1
# The NMRI female mice islets were rinsed twice with a modified Krebs-Ringer buffer (KRB) supplemented with 3.3 mmol/L glucose and 0.1% human serum albumin (Sigma). The KRB contained 125 mmol/L NaCl, 5.9 mmol/L KCl, 1.2 MgCl, 1.28 CaCl2 and 25 mmol/L HEPES (Ph 7.4: all Sigma). Single islets were incubated in 100 μL KRB containing glucose (3.3 and 16.7 mmol/L) and steviol/ISV according to the protocols (Jeppesen et al., 2000). After incubation (60 min), 50 μL of the medium was frozen for RIA analysis of insulin.
smiles,measurement,setting,value
"C[C@@]12CC[C@@H]3[C@@](CC[C@H]4[C@@]3(C)CCC[C@@]4(C)C(=O)O)(CC1=O)C2 (single isomer, unassigned; ent-16) [ISV, ent-16-ketobeyeran-19-oic acid]",up regulation of Pdx1,[1]; RT-PCR,~2 fold
same,"increased expression of Pdx1/Ipf1, ISV group vs. control group",[1]; normalized to 18S rRNA,96%
same,"increased expression of Beta2/neuroD, ISV group vs. control group",[2],60%
same,array: change of GLUT2 expression,[3],upregulation
same,array: change of Beta2/neuroD expression,[4],upregulation
same,array: increased expression in Pax6,[5],1.9 fold
same,array: increased expression in Nkx2-2,[6],2.3 fold
same,effect on insulin secretion at low glucose,"[7]; 3.3 mmol/L glucose, 60 min incubation",did not potentiate the insulin secretion
same,concentration giving apparent maximal effect on glucose stimulated insulin secretion,"[7]; 16.7 mmol/L glucose, 60 min incubation",approx. 10^−8 mol/l
same,"potency on GSIS, isosteviol compared with steviol, at higher concentration","[7]; 10^−8 mol/l-10^−6 mol/l, 16.7 mmol/l glucose, 60 minutes",not found any significant difference
same,"potency on GSIS, isosteviol compared with steviol, at low concentration","[7]; 10^−10 mol/l, 16.7 mmol/l glucose, 60 minutes",significantly more potent than steviol
same,effect on insulin secretion stimulated by 16.7 mmol/L glucose,"[7]; ISV 10^−12 mol/l-10^−8 mol/l, 60 min incubation",potentiated insulin secretion
